Like-named read-outs stand apart in the source and are kept apart here.
Key:
[1] = at 25 °C; cited from earlier work
[2] = Example 11; base raised from 0.15-0.2 wt% to 5 wt%; covers both solids
Experimental: In order to verify this assumption, solutions of TMAH were compared with those of the similarly strong base choline hydroxide (CholOH). Mixtures of 0.06 g sand + 0.06 g boehmite or 0.06 g sand + 0.06 g boehmite + 0.68 g magnetite were exposed to volumes of 40 mL of several solutions of TMAH or CholOH for 48 hours at a temperature of 80 °C. Each experiment was carried out in duplicate. The spent test solutions were analyzed to determine the concentrations of dissolved Si, Al, and Fe and the percentage of each of the corresponding oxides in the test solutions was calculated.

[3] = Example 1; both stages; covers B+S and B+S+M
Experimental: An example embodiment of the present invention was evaluated in laboratory testing using mixtures of 0.06 g of boehmite and 0.06 g of silica sand (B+S) or of 0.06 g of boehmite, 0.06 g of silica sand, and 0.68 g of magnetite (B+S+M). These mixtures were heated at 80 °C for 1 day, with 40 mL volumes of a solution of 381 ppm (0.0381%) of TMAH in de-ionized water, adjusted with boric acid to a room-temperature pH of 11.0.
At the end of 1 day, the solutions were removed for analysis of dissolved Al, Si, and Fe, and the experiment on the residual solids was continued for an additional 2-day interval using fresh volumes of the original solutions. In addition to the fractions of each oxide dissolved during the experiment, the mole ratios of metals dissolved to base (TMAH or DMA) introduced were also calculated.

[4] = Example 2; for ratio of dissolved metals (Al, Si and Fe) to base: unadjusted solutions, both stages
Experimental: Other example embodiments of the present invention were evaluated in laboratory testing using mixtures of 0.02 g of boehmite and 0.02 g of silica sand (B+S), and 0.23 g of magnetite (B+S+M). These mixtures were heated at 80 °C for 1 day, with 40 mL volumes of solutions of 1500 ppm (0.15%) of TMAH in de-ionized water, without pH adjustment, adjusted with boric acid to a room-temperature pH of 11.0, or adjusted with boric acid to a room-temperature pH of 9.0.
All the solutions were sparged with nitrogen for 15 minutes at the beginning of each experiment.
After one day (∼ 24 hours), the solutions were removed for analysis of dissolved Al, Si, and Fe. The experiment on the residual solids was continued for an additional 2-day interval using fresh volumes of the original solutions. In addition to the fractions of each oxide dissolved during the experiment, the mole ratios of metals dissolved to base (TMAH or DMA) introduced were also calculated.

[5] = Example 3; both stages; covers B+S and B+S+M
Experimental: Another example embodiment of the present invention was evaluated in laboratory testing using mixtures of 0.06 g of boehmite and 0.06 g of silica sand (B+S) or of 0.06 g of boehmite, 0.06 g of silica sand, and 0.68 g of magnetite (B+S+M). These mixtures were heated at 80 °C for 1 day with 40 mL volumes of a solution of 46 ppm (0.0046%) of TMAH in de-ionized water, having a room-temperature pH of 10.8.
At the end of 1 day, the solutions were removed and analyzed for dissolved Al, Si, and Fe. The experiment on the residual solids was continued for an additional 2-day interval using fresh volumes of the original solutions. In addition to the fraction of each oxide dissolved during the experiment, the mole ratios of metals dissolved to base (TMAH or DMA) introduced were also calculated.

[6] = Example 4; covers B+S and B+S+M
Experimental: Another example embodiment of the present invention was evaluated in laboratory testing using mixtures of 0.06 g of boehmite and 0.06 g of silica sand (B+S) or of 0.06 g of boehmite, 0.06 g of silica sand, and 0.68 g of magnetite (B+S+M). These mixtures were heated at 80 °C for 1 day, with 40 mL volumes of a combined solution of 50.8 g/L (5.08%) of TMAH and 10 g•L^-1 (1%) of ethylenediaminetetra-acetic acid (EDTA) in de-ionized water.
At the end of 1 day, the solutions were removed for analysis of dissolved Al, Si, and Fe. In addition to fractions of each oxide dissolved during the experiment, the mole ratios of the amount of metals dissolved to base (TMAH or DMA) introduced were also calculated.

[7] = Dissolution of boehmite (Example 5); details: 0.03 g boehmite alone
[8] = Coupon corrosion test with pre-heated TMAH solutions (Example 9); details: 5 wt% TMAH + 1 wt% EDTA
Experimental: In order to determine the effect of possible thermal degradation of TMAH on its corrosivity towards steel, C1018 carbon steel coupons were tested in three solutions of 5 wt% TMAH + 1 wt% EDTA. […] One of these solutions was not pre-exposed to elevated temperatures. The second solution was exposed to a temperature of 130 ±10 °C for two days before being used in the test. During pre-heating period, the 20-mL Parr bomb in which the solution was heated was almost full, leaving very little vapor space above the solution. The third solution was similarly pre-heated at 130 ±10 °C for two days, but the Parr bomb was only half-full, holding 10 mL of solution and 10 mL of air. The three TMAH solutions were later used in testing of 1018 carbon steel coupons in 40 mL of testing solution for 1 week.

[9] = cited from earlier work

Structure (SMILES)	pH [1]	extent of dissolution of boehmite increased by a factor [2]	ratio of dissolved Al to base [3]	ratio of dissolved metals (Al, Si and Fe) to base [4]	ratio of dissolved Al to base [5]	ratio of total dissolved metal (predominantly dissolved Al) to introduced base [6]	also measured
C1=NCCCN2CCCCC12 (stereo not shown) [1,5-diazabicyclo(5,4,0)undec-5-ene]	13.40	–	–	–	–	–	–
C[N+](C)(C)CCO.[OH-] [CholOH, choline hydroxide]	–	approximately 1.7	–	–	–	–	–
CNC [DMA, dimethylamine, reference compound]	–	–	0.06-0.07	0.03-0.06	0.04-0.10	0.02-0.04	pKa [1]: about 10.61
C[N+](C)(C)C.[OH-] [TMAH, Tetramethylammonium hydroxide]	–	approximately 1.7	0.24-0.29	0.09-0.10	0.05-0.27	0.15-0.16	dissolution of Al higher by a factor, versus DMA solution [7]: 13; mole ratios higher by factors, TMAH versus DMA ([4]; pH adjusted solutions): 2-8; pH of the solution ([8]; after pre-heating in the absence of air): approximately 13.4; pH of the solution ([8]; before pre-heating): approximately 13.0; more effective than DMA by a factor (mole ratio calculations) [6]: 4-7; thermally stable in aqueous solutions up to [9]: 130-135 °C
CCCCN [mono-N-butylamine]	10.61	–	–	–	–	–	–
